This note sets out measurements from ChEMBL document CHEMBL1921720, “A new antifungal briarane diterpenoid from the gorgonian Junceella juncea Pallas” (2011).

Active and inactive are the calls of the source. The rule behind the calls is not given here.

Format in all cases: functional
Test [1] relates to Escherichia coli. The test is described as follows: Antibacterial activity against Escherichia coli at 200 ug/mL after 24 hrs by agar cup diffusion method. The settings on record: for zone of inhibition at 200 µg/mL: read-out: DIZ.
Test [2] deals with Aspergillus niger. Description: Antifungal activity against Aspergillus niger at 200 ug/mL after 48 hrs by agar cup diffusion assay. The settings on record: for zone of inhibition at 200 µg/mL: read-out: DIZ.
Test [3] concerns Bacillus pumilus. Description: Antibacterial activity against Bacillus pumilus at 200 ug/mL after 24 hrs by agar cup diffusion method. The following applies: for zone of inhibition at 200 µg/mL: read-out: DIZ.
Test [4] has as its system Bacillus subtilis. Description: Antibacterial activity against Bacillus subtilis at 200 ug/mL after 24 hrs by agar cup diffusion method. The following applies: for zone of inhibition at 200 µg/mL: read-out: DIZ.
The test system of test [5] is Candida albicans. Description: Antifungal activity against Candida albicans at 200 ug/mL after 48 hrs by agar cup diffusion assay. The following applies: for zone of inhibition at 200 µg/mL: read-out: DIZ.
Test [6] has as its system Proteus vulgaris. The test is described as follows: Antibacterial activity against Proteus vulgaris at 200 ug/mL after 24 hrs by agar cup diffusion method. The following applies: for zone of inhibition at 200 µg/mL: read-out: DIZ.
Test [7] has as its system Penicillium chrysogenum. The test is described as follows: Antifungal activity against Penicillium chrysogenum at 200 ug/mL after 48 hrs by agar cup diffusion assay.

`C=C1CC[C@H](OC(C)=O)[C@@]2(C)[C@@H](OC(=O)CC(C)C)C[C@@H](OC(C)=O)[C@]3(CO3)[C@@H]2[C@H](OC(C)=O)[C@@]2(O)[C@H](C1)OC(=O)[C@@H]2C`: the “diameter of the inhibition zone (DIZ)” value in test [1], in test [3], in test [4] and in test [6] was “inactive” throughout. Moreover, the zone of inhibition at 200 µg/mL was found to be 18 mm in test [2], 17 mm in test [5] and 16 mm in test [7] (read-out: DIZ).
Take `CC1(C)S[C@@H]2[C@H](NC(=O)[C@H](N)c3ccccc3)C(=O)N2[C@H]1C(=O)O` [AMPICILLIN]: the zone of inhibition at 200 µg/mL came to 17 mm in test [1], 18 mm in test [3], 17 mm in test [4] and 16 mm in test [6]. The “diameter of the inhibition zone (DIZ)” value in test [2], in test [5] and in test [7] was “inactive” each time.
In the case of `C=C1CC[C@H](OC(C)=O)[C@@]2(C)[C@@H](OC(C)=O)[C@@H](OC(C)=O)[C@@H](OC(C)=O)[C@]3(CO3)[C@@H]2[C@H](OC(C)=O)[C@]2(O)[C@@H](C)C(=O)O[C@H]2[C@H]1Cl` [GEMMACOLIDE A], the zone of inhibition at 200 µg/mL was 20 mm in test [1]; 10 mm in test [2]; 19 mm in test [3]; 10 mm in test [4]; 8 mm in test [5]; 12 mm in test [6]. Moreover, in test [7], the “diameter of the inhibition zone (DIZ)” value was “inactive”.
As to `C=C1CC[C@H](OC(C)=O)[C@@]2(C)[C@@H](OC(C)=O)[C@@H](OC(=O)CC(C)C)[C@@H](OC(C)=O)[C@]3(CO3)[C@@H]2[C@H](OC(C)=O)[C@]2(O)[C@@H](C)C(=O)O[C@H]2[C@H]1Cl` [GEMMACOLIDE B], the zone of inhibition at 200 µg/mL was determined as 20 mm in test [1]; 10 mm in test [2]; 19 mm in test [3]; 10 mm in test [4]; 8 mm in test [5]; 12 mm in test [6]. Moreover, the “diameter of the inhibition zone (DIZ)” value in test [7] is “inactive”.
As for `C=C1CC[C@H](OC(C)=O)[C@@]2(C)[C@@H](OC(=O)CC(C)C)C[C@@H](OC(C)=O)[C@]3(CO3)[C@@H]2[C@H](OC(C)=O)[C@]2(O)[C@@H](C)C(=O)O[C@H]2[C@H]1Cl` [JUNCIN H], the zone of inhibition at 200 µg/mL in test [1] came to 14 mm; in test [2], 6 mm; in test [3], 10 mm; in test [4], 12 mm; in test [6], 13 mm. In addition, the “diameter of the inhibition zone (DIZ)” value in test [5] and in test [7] was “inactive” throughout.
With `CC(=O)OCC1=C/[C@@H]2OC(=O)[C@H](C)[C@@]2(O)[C@@H](OC(C)=O)[C@H]2[C@@]3(CO3)[C@H](OC(=O)CC(C)C)C[C@H](OC(=O)CC(C)C)[C@]2(C)[C@@H](OC(C)=O)/C=C\1` [JUNCIN K], the zone of inhibition at 200 µg/mL was determined as 15 mm in test [1]; 8 mm in test [2]; 13 mm in test [3]; 13 mm in test [4]; 14 mm in test [6]. The “diameter of the inhibition zone (DIZ)” value in test [5] and in test [7] was “inactive” each time.
As for `CC(=O)N1CCN(c2ccc(OCC3COC(Cn4ccnc4)(c4ccc(Cl)cc4Cl)O3)cc2)CC1` (centres undefined) [KETOCONAZOLE], the “diameter of the inhibition zone (DIZ)” value in test [1], in test [3], in test [4], in test [6] and in test [7] was “inactive” throughout. Further, the zone of inhibition at 200 µg/mL was 24 mm in test [2] and 21 mm in test [5].
